Measurements: patent publication US6492407B2, “Pharmaceutical compositions containing triazolones and methods of treating neurodegenerative disease using triazolones” (Boehringer Imgelheim Pharma KG, priority 1998, dated 2002)
pKi: −log10 of the molar value. Structures can show the parent of a compound that is named as a salt.

Experiments:
AMPA receptor = test: Inhibition of the cainate-induced signal at the AMPA receptor, electrophysiology on neuronal cells (patch-clamp method); type: cell-based; settings: test concentration of 100 μM
Description: The testing was carried out at a test concentration of 100 μM.

[1] = molecular target: Na+ channel site 2 binding site; test: Affinity to the "Na+ channel site 2" binding site (method of G. B. Brown); settings: testing typically at a test concentration of 10 μM

SMILES | AMPA Inh. [%] (inhibition of the cainate-induced signal at the AMPA receptor) (AMPA receptor) | pKi [1] | melting point [°C]
Cc1ccccc1-n1nc(-c2ccccc2)n(CCN(C)C)c1=O [Example 27, 4-(2-N,N-dimethyl-aminoethyl)-2-(2-methyl-phenyl)-5-phenyl-3H-1,2,4-triazol-3-one] | 64 | 5.27 | –
COc1ccccc1-n1[nH]c(-c2ccccc2)nc1=O [Example 32, 2-(2-methoxy-phenyl)-5-phenyl-3H-1,2,4-triazol-3-one] | 73 | – | 275 to 277
Cc1cccc(-n2nc(-c3ccccc3)n(C)c2=O)c1 [Example 50, 4-methyl-2-(3-methyl-phenyl)-5-phenyl-3H-1,2,4-triazol-3-one] | 71 | – | 91 to 92
O=c1nc(-c2ccccc2)[nH]n1-c1ccccc1Br [Example 56, 2-(2-bromo-phenyl)-5-phenyl-3H-1,2,4-triazol-3-one] | 96 | – | 246 to 264
Cc1ccccc1-n1nc(-c2ccccc2)n(CCN(C)C)c1=O (as salt: HCl) [Example 27, 4-(2-N,N-dimethyl-aminoethyl)-2-(2-methyl-phenyl)-5-phenyl-3H-1,2,4-triazol-3-one] | – | – | 204 to 207
Cn1c(-c2ccccc2)nn(-c2ccccc2F)c1=O [Example 44, 2-(2-fluoro-phenyl)-4-methyl-5-phenyl-3H-1,2,4-triazol-3-one] | 76 | – | 65 to 66
O=c1nc(-c2ccccc2)[nH]n1-c1ccccc1Cl [Example 33, 2-(2-chloro-phenyl)-5-phenyl-3H-1,2,4-triazol-3-one] | 97 | – | 257
COc1cccc(-n2nc(-c3ccccc3)n(C)c2=O)c1 [Example 5, 2-(3-methoxy-phenyl)-4-methyl-5-phenyl-3H-1,2,4-triazol-3-one] | 58 | – | 81 to 83
Cc1cccc(-n2nc(-c3ccccc3)n(CCN(C)C)c2=O)c1 (as salt: HCl) [Example 53, 4-(2-N,N-dimethyl-amino-ethyl)-2-(3-methyl-phenyl)-5-phenyl-3H-1,2,4-triazol-3-one] | – | – | 204 to 206
Cc1cccc(-n2nc(-c3ccccc3)n(CCN(C)C)c2=O)c1 [Example 53, 4-(2-N,N-dimethyl-amino-ethyl)-2-(3-methyl-phenyl)-5-phenyl-3H-1,2,4-triazol-3-one] | – | 5.24 | –
Cc1ccccc1-n1[nH]c(-c2ccccc2)nc1=O [Example 1, 2-(2-methyl-phenyl)-5-phenyl-3H-1,2,4-triazol-3-one] | 58 | – | 208 to 211
Cc1cccc(-n2[nH]c(-c3ccccc3)nc2=O)c1 (as salt: HCl) [Example 46, 2-(3-methyl-phenyl)-5-phenyl-3H-1,2,4-triazol-3-one] | – | – | 207 to 208
CN(C)CCn1c(-c2ccccc2)nn(-c2cccc(Cl)c2)c1=O [Example 35, 2-(3-chloro-phenyl)-4-(2-N,N-dimethylamino-ethyl)-5-phenyl-3H-1,2,4-triazol-3-one] | – | 5.68 | –
COc1ccc(-c2nn(-c3ccccc3)c(=O)n2C)cc1 [Example 22, 5-(4-methoxy-phenyl)-4-methyl-2-phenyl-3H-1,2,4-triazol-3-one] | 50 | – | 118
CCc1ccccc1-n1[nH]c(-c2ccccc2)nc1=O [Example 48, 2-(2-ethyl-phenyl)-5-phenyl-3H-1,2,4-triazol-3-one] | 63 | – | 209 to 210
Cc1cccc(-n2[nH]c(-c3ccccc3)nc2=O)c1 [Example 46, 2-(3-methyl-phenyl)-5-phenyl-3H-1,2,4-triazol-3-one] | 54 | – | –
Cn1c(-c2ccccc2)nn(-c2ccccc2Br)c1=O [Example 8, 2-(2-bromo-phenyl)-4-methyl-5-phenyl-3H-1,2,4-triazol-3-one] | 87 | – | 80 to 82
Cn1c(-c2ccccc2)nn(-c2ccccc2Cl)c1=O [Example 55, 2-(2-chloro-phenyl)-4-methyl-5-phenyl-3H-1,2,4-triazol-3-one] | 80 | – | 94 to 96
CN(C)CCn1c(-c2ccccc2)nn(-c2cccc(F)c2)c1=O [Example 49, 2-(3-fluorophenyl)-4-(2-N,N-dimethyl-aminoethyl)-5-phenyl-3H-1,2,4-triazol-3-one] | – | 5.18 | –
O=c1nc(-c2ccccc2)[nH]n1-c1ccccc1F [Example 37, 2-(2-fluoro-phenyl)-5-phenyl-3H-1,2,4-triazol-3-one] | 86 | – | 238 to 240
Cn1c(-c2ccccc2)nn(-c2cccc(F)c2)c1=O [Example 42, 2-(3-fluoro-phenyl)-4-methyl-5-phenyl-3H-1,2,4-triazol-3-one] | 96 | – | 81
COc1ccccc1-c1nn(-c2ccccc2)c(=O)n1C [Example 25, 5-(2-methoxy-phenyl)-4-methyl-2-phenyl-3H-1,2,4-triazol-3-one] | 72 | – | 117
CN(C)CCn1c(-c2ccccc2)nn(-c2cccc(F)c2)c1=O (as salt: HCl) [Example 49, 2-(3-fluorophenyl)-4-(2-N,N-dimethyl-aminoethyl)-5-phenyl-3H-1,2,4-triazol-3-one] | – | – | 201 to 203
